Results as given in patent US11014929B2, “Pyrazolopyrimidine compounds and uses thereof” (Incyte Corporation, priority 2016, dated 2021).

Target: HPK1 (Homo sapiens (Human), UniProt Q92918)
Experiment: HPK1 Kinase Binding Assay
Conditions: LanthaScreen tracer 222 binding, active HPK1, one hour incubation at 25° C.
Experimental: A stock solution of 1 mM test compound was prepared in DMSO. The compound plate was prepared by 3-fold and 11-point serial dilutions. 0.1 μL of the compound in DMSO was transferred from the compound plate to the white 384 well polystyrene plates. The assay buffer contained 50 mM HEPES, pH 7.5, 0.01% Tween-20, 5 mM MgCl2, 0.01% BSA, and 5 mM DTT. 5 μl of 4 nM active HPK1 (SignalChem M23-11G) prepared in the buffer was added to the plate. The enzyme concentration given was based on the given stock concentration reported by the vender. 5 μl of 18 nM tracer 222 (ThermoFisher PV6121) and 4 nM LanthaScreen Eu-Anti GST antibody (ThermoFisher PV5595) were added. After one hour incubation at 25° C., the plates were read on a PHERAstar FS plate reader (BMG Labtech). Ki values were determined.

HPK1, sequence (Q92918 1-346): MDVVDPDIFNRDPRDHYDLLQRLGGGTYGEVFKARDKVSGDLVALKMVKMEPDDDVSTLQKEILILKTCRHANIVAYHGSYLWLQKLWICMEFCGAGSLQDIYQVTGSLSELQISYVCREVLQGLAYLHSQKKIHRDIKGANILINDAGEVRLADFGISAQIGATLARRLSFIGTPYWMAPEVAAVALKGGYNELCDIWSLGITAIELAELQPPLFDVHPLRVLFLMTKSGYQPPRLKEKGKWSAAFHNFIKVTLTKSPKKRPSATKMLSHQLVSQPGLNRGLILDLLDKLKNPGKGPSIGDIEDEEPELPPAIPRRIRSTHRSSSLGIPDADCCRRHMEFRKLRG

Compound	Ki [nM]
CCN1CCN(c2ccc(-c3n[nH]c4cnc(-c5c(F)cc(CNC)cc5F)nc34)cc2)CC1 [Example 67, 1-(4-(3-(4-(4-Ethylpiperazin-1-yl)phenyl)-1H-pyrazolo[4,3-d]pyrimidin-5-yl)-3,5-difluorophenyl)-N-methylmethanamine]	≤ 100
Cc1cccc(F)c1-c1ncc2[nH]nc(-c3ccc(N4CCNCC4)cc3)c2n1 [Example 59, 5-(2-Fluoro-6-methylphenyl)-3-(4-(piperazin-1-yl)phenyl)-1H-pyrazolo[4,3-d]pyrimidine]	≤ 100
CN1CCN(c2ccc(-c3n[nH]c4cnc(-c5c(F)cc6c(c5F)CNCC6)nc34)cc2)CC1 [Example 99, 6,8-Difluoro-7-(3-(4-(4-methylpiperazin-1-yl)phenyl)-1H-pyrazolo[4,3-d]pyrimidin-5-yl)-1,2,3,4-tetrahydroisoquinoline]	≤ 100
Cc1c2c(cc(F)c1-c1ncc3[nH]nc(-c4ccc(N5CCOCC5)nc4)c3n1)CCNC2 [Example 109, 4-(5-(5-(6-Fluoro-8-methyl-1,2,3,4-tetrahydroisoquinolin-7-yl)-1H-pyrazolo[4,3-d]pyrimidin-3-yl)pyridin-2-yl)morpholine]	≤ 100
OCCNc1ncc(-c2n[nH]c3cnc(-c4c(F)cc5c(c4F)CNCC5)nc23)cn1 [Example 91, 2-(5-(5-(6,8-Difluoro-1,2,3,4-tetrahydroisoquinolin-7-yl)-1H-pyrazolo[4,3-d]pyrimidin-3-yl)pyrimidin-2-ylamino)ethanol]	≤ 100
CC(=O)N1CCN(c2ccc(-c3n[nH]c4cnc(-c5c(F)cc6c(c5C)CNCC6)nc34)cc2)CC1 [Example 108, 1-(4-(4-(5-(6-Fluoro-8-methyl-1,2,3,4-tetrahydroisoquinolin-7-yl)-1H-pyrazolo[4,3-d]pyrimidin-3-yl)phenyl)piperazin-1-yl)ethanone]	≤ 100
CNCc1cc(F)c(-c2ncc3[nH]nc(-c4cccc(C#N)c4)c3n2)c(F)c1 [Example 64, 3-(5-(2,6-Difluoro-4-((methylamino)methyl)phenyl)-1H-pyrazolo[4,3-d]pyrimidin-3-yl)benzonitrile]	≤ 100
COc1cccc(F)c1-c1ncc2[nH]nc(-c3ccc(F)cc3)c2n1 [Example 36, 5-(2-Fluoro-6-methoxyphenyl)-3-(4-fluorophenyl)-1H-pyrazolo[4,3-d]pyrimidine]	≤ 100
COc1ccccc1-c1ncc2[nH]nc(-c3ccc(N4CCN(C)CC4)cc3)c2n1 [Example 3, 5-(2-Methoxyphenyl)-3-(4-(4-methylpiperazin-1-yl)phenyl)-1H-pyrazolo[4,3-d]pyrimidine]	≤ 100
CCN1CCN(c2ccc(-c3n[nH]c4cnc(-c5c(C)cc(C6CCCCN6)cc5F)nc34)cc2)CC1 (stereo not drawn) [Example 125, 3-(4-(4-Ethylpiperazin-1-yl)phenyl)-5-(2-fluoro-6-methyl-4-(piperidin-2-yl)phenyl)-1H-pyrazolo[4,3-d]pyrimidine]	≤ 100
COc1cccc(F)c1-c1ncc2[nH]nc(/C=C/c3ccc(N4CCN(C)CC4)cc3)c2n1 [Example 55, (E)-5-(2-Fluoro-6-methoxyphenyl)-3-(4-(4-methylpiperazin-1-yl)styryl)-1H-pyrazolo[4,3-d]pyrimidine]	≤ 100
COc1cccc(F)c1-c1ncc2[nH]nc(-c3ccccc3C)c2n1 [Example 20, 5-(2-Fluoro-6-methoxyphenyl)-3-o-tolyl-1H-pyrazolo[4,3-d]pyrimidine]	500 to 5000
COc1cccc(F)c1-c1ncc2[nH]nc(-c3cnn(C)c3)c2n1 [Example 14, 5-(2-Fluoro-6-methoxyphenyl)-3-(1-methyl-1H-pyrazol-4-yl)-1H-pyrazolo[4,3-d]pyrimidine]	≤ 100
CCN(C)C(=O)N1CCN(c2ccc(-c3n[nH]c4cnc(-c5c(F)cc(CNC)cc5F)nc34)cn2)CC1 [Example 75, 4-(5-(5-(2,6-Difluoro-4-((methylamino)methyl)phenyl)-1H-pyrazolo[4,3-d]pyrimidin-3-yl)pyridin-2-yl)-N-ethyl-N-methylpiperazine-1-carboxamide]	≤ 100
CNC1CCc2cc(F)c(-c3ncc4[nH]nc(-c5ccc(N6CCOCC6)nc5)c4n3)c(F)c2C1 (stereo not drawn) [Example 115, 6,8-Difluoro-N-methyl-7-(3-(6-morpholinopyridin-3-yl)-1H-pyrazolo[4,3-d]pyrimidin-5-yl)-1,2,3,4-tetrahydronaphthalen-2-amine]	≤ 100
CN1CCN(c2ccc(-c3n[nH]c4cnc(-c5cccc6c5CCNC6)nc34)cc2)CC1 [Example 10, 5-(3-(4-(4-Methylpiperazin-1-yl)phenyl)-1H-pyrazolo[4,3-d]pyrimidin-5-yl)-1,2,3,4-tetrahydroisoquinoline]	≤ 100

Results, then the compound that gave them:

Ki [nM]	Compound
≤ 100	COc1cccc(F)c1-c1ncc2[nH]nc(-c3ccc(CN4CCN(C)CC4)cc3)c2n1 [Example 23, 5-(2-Fluoro-6-methoxyphenyl)-3-(4-((4-methylpiperazin-1-yl)methyl)phenyl)-1H-pyrazolo[4,3-d]pyrimidine]
≤ 100	CNC(=O)c1ccc(-c2n[nH]c3cnc(-c4c(F)cccc4OC)nc23)cc1 [Example 38, 4-(5-(2-Fluoro-6-methoxyphenyl)-1H-pyrazolo[4,3-d]pyrimidin-3-yl)-N-methylbenzamide]
≤ 100	CNCc1cc(C)c(-c2ncc3[nH]nc(-c4cnn(C)c4)c3n2)c(F)c1 [Example 78, 1-(3-Fluoro-5-methyl-4-(3-(1-methyl-1H-pyrazol-4-yl)-1H-pyrazolo[4,3-d]pyrimidin-5-yl)phenyl)-N-methylmethanamine]
≤ 100	CNCc1cc(F)c(-c2ncc3[nH]nc(-c4ccc(N5CCCC(C)(CO)C5)nc4)c3n2)c(F)c1 (stereo not drawn) [Example 71, (1-(5-(5-(2,6-Difluoro-4-((methylamino)methyl)phenyl)-1H-pyrazolo[4,3-d]pyrimidin-3-yl)pyridin-2-yl)-3-methylpiperidin-3-yl)methanol]
≤ 100	CNCc1cc(F)c(-c2ncc3[nH]nc(-c4ccc(N5CCN(CCOC)CC5)cc4)c3n2)c(F)c1 [Example 123, 1-(3,5-Difluoro-4-(3-(4-(4-(2-methoxyethyl)piperazin-1-yl)phenyl)-1H-pyrazolo[4,3-d]pyrimidin-5-yl)phenyl)-N-methylmethanamine]
≤ 100	COc1cccc(F)c1-c1ncc2[nH]nc(-c3ccc(N4CCN(C(C)=O)CC4)nc3)c2n1 [Example 54, 1-(4-(5-(5-(2-Fluoro-6-methoxyphenyl)-1H-pyrazolo[4,3-d]pyrimidin-3-yl)pyridin-2-yl)piperazin-1-yl)ethan-1-one]
≤ 100	COc1cccc(F)c1-c1ncc2[nH]nc(-c3ccc(C#N)cc3)c2n1 [Example 17, 4-(5-(2-Fluoro-6-methoxyphenyl)-1H-pyrazolo[4,3-d]pyrimidin-3-yl)benzonitrile]
≤ 100	CNCc1cc(F)c(-c2ncc3[nH]nc(-c4ccc(C(=O)NC)nc4)c3n2)c(F)c1 [Example 61, 5-(5-(2,6-Difluoro-4-((methylamino)methyl)phenyl)-1H-pyrazolo[4,3-d]pyrimidin-3-yl)-N-methylpicolinamide]
≤ 100	Cc1cccc(F)c1-c1ncc2[nH]nc(-c3ccc(N4CCC(C#N)CC4)cc3)c2n1 [Example 58, 1-(4-(5-(2-Fluoro-6-methylphenyl)-1H-pyrazolo[4,3-d]pyrimidin-3-yl)phenyl)piperidine-4-carbonitrile]
≤ 100	Cc1cncc(-c2ncc3[nH]nc(-c4ccc(N5CCN(C)CC5)cc4)c3n2)c1 [Example 6, 3-(4-(4-Methylpiperazin-1-yl)phenyl)-5-(5-methylpyridin-3-yl)-1H-pyrazolo[4,3-d]pyrimidine]
≤ 100	CN1CCN(c2ccc(-c3n[nH]c4cnc(-c5c(F)ccc6c5CCCC6N)nc34)cc2)CC1 (stereo not drawn) [Example 121, 6-Fluoro-5-(3-(4-(4-methylpiperazin-1-yl)phenyl)-1H-pyrazolo[4,3-d]pyrimidin-5-yl)-1,2,3,4-tetrahydronaphthalen-1-amine]
≤ 100	COc1cccc(F)c1-c1ncc2[nH]nc(-c3ccc(CN)cc3)c2n1 [Example 41, (4-(5-(2-Fluoro-6-methoxyphenyl)-1H-pyrazolo[4,3-d]pyrimidin-3-yl)phenyl)methanamine]
≤ 100	CN1CCN(c2ccc(-c3n[nH]c4cnc(-c5cncc(C(=O)N6CCOCC6)c5)nc34)cc2)CC1 [Example 8, (5-(3-(4-(4-Methylpiperazin-1-yl)phenyl)-1H-pyrazolo[4,3-d]pyrimidin-5-yl)pyridin-3-yl)(morpholino)methanone]
≤ 100	Cc1ccccc1-c1ncc2[nH]nc(-c3ccc(N4CCN(C)CC4)cc3)c2n1 [Example 2, 3-(4-(4-Methylpiperazin-1-yl)phenyl)-5-o-tolyl-1H-pyrazolo[4,3-d]pyrimidine]
≤ 100	COc1ccncc1-c1ncc2[nH]nc(-c3ccc(N4CCN(C)CC4)nc3)c2n1 [Example 103, 5-(4-Methoxypyridin-3-yl)-3-(6-(4-methylpiperazin-1-yl)pyridin-3-yl)-1H-pyrazolo[4,3-d]pyrimidine]
≤ 100	CNC1CCc2c1cc(F)c(-c1ncc3[nH]nc(-c4ccc(N5CCOCC5)nc4)c3n1)c2F (stereo not drawn) [Example 113, 4,6-Difluoro-N-methyl-5-(3-(6-morpholinopyridin-3-yl)-1H-pyrazolo[4,3-d]pyrimidin-5-yl)-2,3-dihydro-1H-inden-1-amine]
≤ 100	CNc1ncc(-c2n[nH]c3cnc(-c4c(F)cc5c(c4F)CNCC5)nc23)cn1 [Example 94, 5-(5-(6,8-Difluoro-1,2,3,4-tetrahydroisoquinolin-7-yl)-1H-pyrazolo[4,3-d]pyrimidin-3-yl)-N-methylpyrimidin-2-amine]
